Measured values taken from patent US9789100B2, “Compounds as rearranged during transfection (RET) inhibitors” (GlaxoSmithKline Intellectual Property Development Limited, priority 2013, dated 2017).
Counter-ions that a name gives are not always drawn. Like-named read-outs stand apart in the source and are kept apart here.

Legend:
[1] = molecular target: Human RET kinase cytoplasmic domain (Homo sapiens (Human), UniProt P07949); assay: RET kinase enzymatic assay; assay type: biochemical; conditions: human RET kinase enzymatic assay (Table 2)
Human RET kinase cytoplasmic domain, sequence (P07949 658-1114): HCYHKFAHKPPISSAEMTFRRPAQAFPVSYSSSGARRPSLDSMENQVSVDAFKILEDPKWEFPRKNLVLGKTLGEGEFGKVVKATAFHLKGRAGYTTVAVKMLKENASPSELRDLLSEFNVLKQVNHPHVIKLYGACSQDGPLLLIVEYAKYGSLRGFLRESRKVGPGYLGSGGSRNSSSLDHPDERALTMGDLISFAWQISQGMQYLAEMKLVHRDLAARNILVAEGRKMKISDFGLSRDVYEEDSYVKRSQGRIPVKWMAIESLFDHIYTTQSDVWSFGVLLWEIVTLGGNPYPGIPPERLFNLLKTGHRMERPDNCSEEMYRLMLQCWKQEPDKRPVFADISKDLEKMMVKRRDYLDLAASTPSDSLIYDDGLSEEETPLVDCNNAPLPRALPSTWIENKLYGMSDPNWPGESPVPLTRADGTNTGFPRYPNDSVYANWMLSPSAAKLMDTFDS
Method: RET Kinase Enzymatic Assay
GST-RET was purified using glutathione sepharose chromatography. The RET kinase enzymatic assay was performed in a total volume of 10 uL with increasing concentrations of RET kinase inhibitor as a singlet in a 384 well format as follows: RET inhibitor compound plates are prepared by adding 100 nL of RET inhibitor at different concentrations to a 384-well plate. 5 μL/well of a 2× enzyme mix (50 mM HEPES (4-(2-hydroxyethyl)-1-piperazineethanesulfonic acid); 1 mM CHAPS (3[(3-cholamidopropyl)dimethylammonio]-1-propanesulfonate); 0.1 mg/mL BSA (bovine serum albumin); 1 mM DTT (dithiothreitol); 0.2 nM RET kinase) was added to the 384-well plate and incubated for 30 minutes at 23° C.

TT cells = assay: RET kinase cell-based proliferation assay; design: species or system human; conditions: 192 h, read-out: RET IC50
Excerpt: RET Kinase Cell-Based Proliferation Assay

[2] = molecular target: constitutive RET kinase phosphorylation in TT cells (Homo sapiens (Human), UniProt P07949, C634W); assay: RET kinase cell-based mechanistic assay
constitutive RET kinase phosphorylation in TT cells, sequence (P07949 29-1114 C634W): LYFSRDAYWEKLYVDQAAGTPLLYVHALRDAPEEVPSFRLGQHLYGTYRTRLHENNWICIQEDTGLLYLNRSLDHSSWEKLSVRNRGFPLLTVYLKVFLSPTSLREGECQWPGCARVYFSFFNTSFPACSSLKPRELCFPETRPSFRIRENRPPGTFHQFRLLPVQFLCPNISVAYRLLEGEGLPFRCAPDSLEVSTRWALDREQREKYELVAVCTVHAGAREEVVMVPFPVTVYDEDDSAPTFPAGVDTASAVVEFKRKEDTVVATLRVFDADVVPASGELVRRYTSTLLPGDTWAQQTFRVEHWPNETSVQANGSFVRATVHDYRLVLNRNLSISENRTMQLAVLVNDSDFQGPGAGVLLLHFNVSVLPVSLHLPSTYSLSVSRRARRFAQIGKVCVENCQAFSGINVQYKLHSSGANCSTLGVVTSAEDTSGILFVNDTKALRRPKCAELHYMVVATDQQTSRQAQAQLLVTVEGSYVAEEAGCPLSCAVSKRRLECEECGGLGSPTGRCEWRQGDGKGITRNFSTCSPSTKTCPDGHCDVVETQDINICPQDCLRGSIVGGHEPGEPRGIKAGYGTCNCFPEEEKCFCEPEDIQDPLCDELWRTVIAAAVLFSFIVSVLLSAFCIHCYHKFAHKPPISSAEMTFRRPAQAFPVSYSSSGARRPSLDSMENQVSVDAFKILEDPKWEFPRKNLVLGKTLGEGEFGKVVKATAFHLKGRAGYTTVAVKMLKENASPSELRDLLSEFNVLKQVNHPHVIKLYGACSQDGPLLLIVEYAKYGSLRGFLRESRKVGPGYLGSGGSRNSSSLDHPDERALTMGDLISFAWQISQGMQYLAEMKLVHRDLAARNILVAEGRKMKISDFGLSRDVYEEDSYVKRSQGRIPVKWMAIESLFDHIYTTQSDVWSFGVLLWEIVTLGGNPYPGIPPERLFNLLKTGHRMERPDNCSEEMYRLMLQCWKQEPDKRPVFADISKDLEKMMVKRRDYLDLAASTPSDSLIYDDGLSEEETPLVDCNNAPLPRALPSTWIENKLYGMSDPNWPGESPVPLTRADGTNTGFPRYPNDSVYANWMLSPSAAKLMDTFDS
Method: RET Kinase Cell-Based Mechanistic Assay
The potency of the compound of the invention was tested for its ability to inhibit constitutive RET kinase phosphorylation in cell-based assay. […] 1.0E5 TT cells/well were plated in a 96-well cell culture plate and allowed to adhere overnight. […] IC50s were fitted using GraphPad Prism to a sigmoidal dose response.

[3] = human RET kinase cell-based proliferation assay, TT cells, eight days (Table 4)

SMILES	IC50 [1]	IC50 (TT cells; Homo sapiens, TT)	IC50 [2]	IC50 (TT cells; [3])
CCOc1cc(-c2ccc(CC(=O)Nc3cnc(C(C)(C)O)c(C(F)(F)F)c3)c(F)c2)c[nH]c1=O [Example 1, 2-(4-(5-Ethoxy-6-oxo-1,6-dihydropyridin-3-yl)-2-fluorophenyl)-N-(6-(2-hydroxypropan-2-yl)-5-(trifluoromethyl)pyridin-3-yl)acetamide]	< 100 nM	–	–	–
CCOc1ncc(NC(=O)Cc2ccc(-c3c[nH]c(=O)c(OCC)c3)cc2F)cc1C(F)(F)F [Example 2, N-(6-Ethoxy-5-(trifluoromethyl)pyridin-3-yl)-2-(4-(5-ethoxy-6-oxo-1,6-dihydropyridin-3-yl)-2-fluorophenyl)acetamide hydrochloride]	< 100 nM	–	–	–
CCOc1cc(-c2ccc(CC(=O)Nc3ccc(CC(C)(C)CO)c(C(F)(F)F)c3)c(F)c2)c[nH]c1=O [Example 5, 2-(4-(5-Ethoxy-6-oxo-1,6-dihydropyridin-3-yl)-2-fluorophenyl)-N-(4-(3-hydroxy-2,2-dimethylpropyl)-3-(trifluoromethyl)phenyl)acetamide]	< 100 nM	–	–	–
CCOc1cc(-c2ccc(CC(=O)Nc3ccc(CC(C)(C)CO)c(C(F)(F)F)c3)cc2F)c[nH]c1=O [Example 6, 2-(4-(5-Ethoxy-6-oxo-1,6-dihydropyridin-3-yl)-3-fluorophenyl)-N-(4-(3-hydroxy-2,2-dimethylpropyl)-3-(trifluoromethyl)phenyl)acetamide]	< 100 nM	–	–	–
CCOc1cc(=O)[nH]cc1-c1ccc(CC(=O)Nc2ccc(C#N)c(C(F)(F)F)c2)cc1F [Example 7, N-(4-Cyano-3-(trifluoromethyl)phenyl)-2-(4-(4-ethoxy-6-oxo-1,6-dihydropyridin-3-yl)-3-fluorophenyl)acetamide]	< 100 nM	–	–	–
CCOc1cc(-c2ccc(CC(=O)Nc3ccc(C#N)c(C(F)(F)F)c3)c(F)c2)c[nH]c1=O [Example 9, N-(4-Cyano-3-(trifluoro-methyl)phenyl)-2-(4-(5-ethoxy-6-oxo-1,6-dihydro-pyridin-3-yl)-2-fluorophenyl)acetamide]	< 100 nM	–	–	–
CCOc1cc(=O)[nH]cc1-c1ccc(CC(=O)Nc2cnc(OCCN(C)C)c(C(F)(F)F)c2)c(F)c1 [Example 10, N-(6-(2-(Dimethylamino)ethoxy)-5-(trifluoromethyl)pyridin-3-yl)-2-(4-(4-ethoxy-6-oxo-1,6-dihydropyridin-3-yl)-2-fluorophenyl)acetamide dihydrochloride]	100 to 500 nM	500 to 10000 nM	500 to 10000 nM	–
CCOc1cc(-c2ccc(CC(=O)Nc3cc(-n4cnc(C)c4)cc(C(F)(F)F)c3)c(F)c2)c[nH]c1=O [Example 11, 2-(4-(5-Ethoxy-6-oxo-1,6-dihydropyridin-3-yl)-2-fluorophenyl)-N-(3-(4-methyl-1H-imidazol-1-yl)-5-(trifluoromethyl)phenyl)acetamide hydrochloride]	< 100 nM	–	–	–
CCOc1cc(-c2ccc(CC(=O)Nc3ccc(OCCO)c(C(F)(F)F)c3)c(F)c2)c[nH]c1=O [Example 13, 2-(4-(5-Ethoxy-6-oxo-1,6-dihydropyridin-3-yl)-2-fluorophenyl)-N-(4-(2-hydroxyethoxy)-3-(trifluoromethyl)phenyl)acetamide]	< 100 nM	–	–	–
CCOc1cc(-c2ccc(CC(=O)Nc3cnc(CC#N)c(C(F)(F)F)c3)c(F)c2)c[nH]c1=O [Example 14, N-(6-(Cyanomethyl)-5-(trifluoromethyl)pyridin-3-yl)-2-(4-(5-ethoxy-6-oxo-1,6-dihydropyridin-3-yl)-2-fluorophenyl)acetamide hydrochloride]	500 to 10000 nM	–	–	–
CCOc1cc(-c2ccc(CC(=O)Nc3ccc(Cl)c(C(F)(F)F)c3)c(F)c2)c[nH]c1=O [Example 16, N-(4-Chloro-3-(trifluoromethyl)phenyl)-2-(4-(5-ethoxy-6-oxo-1,6-dihydropyridin-3-yl)-2-fluorophenyl)acetamide]	< 100 nM	–	–	–
CCOc1cc(-c2ccc(CC(=O)Nc3ccc(CN(C)C)c(C(F)(F)F)c3)c(F)c2)c[nH]c1=O [Example 17, N-(4-((Dimethylamino)methyl)-3-(trifluoromethyl)phenyl)-2-(4-(5-ethoxy-6-oxo-1,6-dihydropyridin-3-yl)-2-fluorophenyl)acetamide hydrochloride]	< 100 nM	–	–	–
CCOc1cc(-c2ccc(CC(=O)Nc3ccc(Cl)c(Cl)c3)c(F)c2)c[nH]c1=O [Example 18, N-(3,4-Dichlorophenyl)-2-(4-(5-ethoxy-6-oxo-1,6-dihydropyridin-3-yl)-2-fluorophenyl)acetamide]	100 to 500 nM	–	–	–
CCOc1cc(-c2ccc(CC(=O)Nc3cc(C(C)(C)C(F)(F)F)on3)c(F)c2)c[nH]c1=O [Example 19, 2-(4-(5-Ethoxy-6-oxo-1,6-dihydropyridin-3-yl)-2-fluorophenyl)-N-(5-(1,1,1-trifluoro-2-methylpropan-2-yl)isoxazol-3-yl)acetamide]	< 100 nM	–	–	–
CCOc1cc(-c2ccc(CC(=O)Nc3ccc(CN4CCN(CC)CC4)c(C(F)(F)F)c3)c(F)c2)c[nH]c1=O [Example 21, 2-(4-(5-Ethoxy-6-oxo-1,6-dihydropyridin-3-yl)-2-fluorophenyl)-N-(4-((4-ethylpiperazin-1-yl)methyl)-3-(trifluoromethyl)phenyl)acetamide, dihydrochloride]	< 100 nM	–	< 100 nM	–
CCOc1cc(-c2ccc(CC(=O)Nc3cc(F)ccc3F)c(F)c2)c[nH]c1=O [Example 22, N-(2,5-Difluorophenyl)-2-(4-(5-ethoxy-6-oxo-1,6-dihydropyridin-3-yl)-2-fluorophenyl)acetamide]	500 to 10000 nM	–	–	–
CCOc1cc(-c2ccc(CC(=O)Nc3ccc(C(N)=O)c(C(F)(F)F)c3)c(F)c2)c[nH]c1=O [Example 23]	100 to 500 nM	–	–	–
CCOc1cc(-c2ccc(CC(=O)Nc3cc(C(F)(F)F)c(F)cc3F)c(F)c2)c[nH]c1=O [Example 24]	< 100 nM	–	–	–
CCOc1cc(-c2ccc(CC(=O)Nc3cc(C(F)(F)F)cc(C(F)(F)F)c3)c(F)c2)c[nH]c1=O [Example 25]	< 100 nM	–	–	–
CCOc1cc(-c2ccc(CC(=O)Nc3cc(C(C)(C)C(F)(F)F)no3)c(F)c2)c[nH]c1=O [Example 28, 2-(4-(5-Ethoxy-6-oxo-1,6-dihydropyridin-3-yl)-2-fluorophenyl)-N-(3-(1,1,1-trifluoro-2-methylpropan-2-yl)isoxazol-5-yl)acetamide]	< 100 nM	–	< 100 nM	< 100 nM
CCOc1cc(=O)[nH]cc1-c1ccc(CC(=O)Nc2cnc(C(C)(C)CO)c(C(F)(F)F)c2)c(F)c1 [Example 31, 2-(4-(4-Ethoxy-6-oxo-1,6-dihydropyridin-3-yl)-2-fluorophenyl)-N-(6-(1-hydroxy-2-methylpropan-2-yl)-5-(trifluoromethyl)pyridin-3-yl)acetamide]	< 100 nM	–	< 100 nM	< 100 nM
CCOc1cc(=O)[nH]cc1-c1ccc(CC(=O)Nc2ccc(CC(C)(C)CO)c(C(F)(F)F)c2)cc1F [Example 32, 2-(4-(4-Ethoxy-6-oxo-1,6-dihydropyridin-3-yl)-3-fluorophenyl)-N-(4-(3-hydroxy-2,2-dimethylpropyl)-3-(trifluoromethyl)phenyl)acetamide]	< 100 nM	–	< 100 nM	< 100 nM
CCOc1cc(-c2ccc(CC(=O)Nc3cc(-n4cc(C)cn4)cc(C(F)(F)F)c3)c(F)c2)c[nH]c1=O [Example 34, 2-(4-(5-ethoxy-6-oxo-1,6-dihydropyridin-3-yl)-2-fluorophenyl)-N-(3-(4-methyl-1H-pyrazol-1-yl)-5-(trifluoromethyl)phenyl)acetamide hydrochloride]	< 100 nM	100 to 500 nM	100 to 500 nM	–
CCOc1cc(-c2ccc(CC(=O)Nc3cc(-n4ccc(C)n4)cc(C(F)(F)F)c3)c(F)c2)c[nH]c1=O [Example 35, 2-(4-(5-ethoxy-6-oxo-1,6-dihydropyridin-3-yl)-2-fluorophenyl)-N-(3-(3-methyl-1H-pyrazol-1-yl)-5-(trifluoromethyl)phenyl)acetamide hydrochloride]	< 100 nM	100 to 500 nM	< 100 nM	–
CCOc1cc(-c2ccc(CC(=O)Nc3cc(-c4cn[nH]c4)cc(C(F)(F)F)c3)c(F)c2)c[nH]c1=O [Example 36, N-(3-(1H-pyrazol-4-yl)-5-(trifluoromethyl)phenyl)-2-(4-(5-ethoxy-6-oxo-1,6-dihydropyridin-3-yl)-2-fluorophenyl)acetamide hydrochloride]	< 100 nM	100 to 500 nM	< 100 nM	–
CCOc1cc(=O)[nH]cc1-c1ccc(CC(=O)Nc2ccc(C(C)(C)C(F)(F)F)nc2)c(F)c1 [Example 37, 2-(4-(4-ethoxy-6-oxo-1,6-dihydropyridin-3-yl)-2-fluorophenyl)-N-(6-(1,1,1-trifluoro-2-methylpropan-2-yl)pyridin-3-yl)acetamide hydrochloride]	< 100 nM	500 to 10000 nM	100 to 500 nM	–
CCOc1cc(-c2ccc(CC(=O)Nc3cc(OCCN4CCOCC4)cc(C(F)(F)F)c3)c(F)c2)c[nH]c1=O [Example 39, 2-(4-(5-ethoxy-6-oxo-1,6-dihydropyridin-3-yl)-2-fluorophenyl)-N-(3-(2-morpholinoethoxy)-5-(trifluoromethyl)phenyl)acetamide]	< 100 nM	–	< 100 nM	100 to 500 nM
CCOc1cc(-c2ccc(CC(=O)Nc3cc(-c4nn[nH]n4)cc(C(F)(F)F)c3)c(F)c2)c[nH]c1=O [Example 44, N-(3-(2H-tetrazol-5-yl)-5-(trifluoromethyl)phenyl)-2-(4-(5-ethoxy-6-oxo-1,6-dihydropyridin-3-yl)-2-fluorophenyl)acetamide]	< 100 nM	–	–	–
